In US12617762B2, “Carboxy derivatives with antiinflamatory properties” (Sitryx Therapeutics Limited, priority 2019, dated 2026):
Like-named read-outs stand apart in the source and are kept apart here.

How the values were obtained:
[1] = Hepatocyte stability assay, human; assay type: in vitro ADME; settings: human, hepatocytes; for hepatocyte CLint at 10 μM: Hepatocyte stability Clint; for half-life at 10 μM: Hepatocyte stability T½
How it was run: (§1)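 Cells and buffer-only plates are preincubated 10 min at 37° C; 10 μM test compound is then added to hepatocytes (0.5×10^6 cells/mL) and sampled to 60 min. Aliquots are crashed into acetonitrile, spun, and measured by LC-MS/MS to calculate intrinsic clearance from the decline of parent.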

[2] = Hepatocyte stability assay, mouse; assay type: in vitro ADME; settings: mouse, hepatocytes; for hepatocyte CLint at 10 μM: Hepatocyte stability Clint; for half-life at 10 μM: Hepatocyte stability T½
How it was run: as §1

[3] = system: NRF2 (nuclear factor erythroid 2-related factor 2); test: NRF2 +/-GSH activation assay (DiscoverX PathHunter NRF2 translocation kit, U2OS cells); assay type: cell-based; settings: for NRF2 activation +GSH Emax / NRF2 activation −GSH Emax / −GSH Emax: normalised to DMF high control
How it was run: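 U2OS PathHunter eXpress cells, 24 h post-plating, treated with compound ±GSH (+GSH arm: 30 min compound–GSH pre-incubation, 6 mM working GSH), then 6 h at 37 °C. NRF2 nuclear translocation read by enzyme-fragment-complementation chemiluminescence; % activation normalised to DMF high and untreated low controls.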

[4] = system: IL-6 cytokine output from THP-1s; test: THP-1 AlphaLISA IL-6 cytokine inhibition assay; assay type: cell-based; settings: Homo sapiens, LPS then nigericin
How it was run: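 THP-1 cells differentiated with PMA for 72 h, then pre-incubated with compound 30 min, stimulated with LPS 24 h, then Nigericin 1 h, all at 37° C. Supernatant IL-6 measured by AlphaLISA. Percentage inhibition normalized to +/− LPS plate controls.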

[5] = system: IL-1β cytokine output from THP-1s; test: THP-1 AlphaLISA IL-1β cytokine inhibition assay; assay type: cell-based; settings: for IC50: Homo sapiens; for IL-1β lowering, result in words: THP-1 IL-1β assay
How it was run: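 THP-1 cells differentiated with PMA for 72 h, pre-incubated with compound 30 min, then LPS-primed 24 h and Nigericin-stimulated 1 h (37° C./5% CO2). Supernatant IL-1β measured by AlphaLISA; percentage inhibition normalised to +LPS (high) and −LPS (low) plate controls.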

[6] = +GSH, 30 minute compound-GSH pre-incubation, read-out: NRF2 activation +GSH EC50
[7] = −GSH, U2OS PathHunter cells, 6 hours compound treatment, read-out: NRF2 activation −GSH EC50
[8] = THP-1, differentiated THP-1 cells
[9] = THP-1, differentiated THP-1 cells, LPS then nigericin
[10] = −GSH, Table 5 exo vs endo comparison, read-out: −GSH EC50
[11] = −GSH, Table 5 exo vs endo comparison
[12] = THP-1, Table 3, head to head comparison of exo vs endo double bond compounds

SMILES: C=C(Cc1nc([C@H](C)CCCCCC)no1)C(=O)O [Example 40, (R)-2-((3-(octan-2-yl)-1,2,4-oxadiazol-5-yl)methyl)acrylic acid]
- hepatocyte CLint at 10 μM [1]: 21 µL/min/1e6 cells
- half-life at 10 μM [1]: 66 min
- hepatocyte CLint at 10 μM [2]: 82 µL/min/1e6 cells
- half-life at 10 μM [2]: 20 min
- EC50 [3, 6]: 27.5 µM
- NRF2 activation +GSH Emax ([3]; +GSH): 81%
- EC50 [3, 7]: 25.3 µM
- NRF2 activation −GSH Emax ([3]; −GSH): 168%
- IC50 [4, 8]: 18.1 µM
- IC50 [5, 9]: 27 µM

SMILES: C=C(Cc1nc([C@@H](C)CCCCCC)no1)C(=O)O [Example 43, (S)-2-((3-(octan-2-yl)-1,2,4-oxadiazol-5-yl)methyl)acrylic acid]
- hepatocyte CLint at 10 μM [1]: 33 µL/min/1e6 cells
- half-life at 10 μM [1]: 42 min
- hepatocyte CLint at 10 μM [2]: 142 µL/min/1e6 cells
- half-life at 10 μM [2]: 12 min
- EC50 [3, 6]: 27.4 µM
- NRF2 activation +GSH Emax ([3]; +GSH): 81%
- EC50 [3, 7]: 30.4 µM
- NRF2 activation −GSH Emax ([3]; −GSH): 166%
- IC50 [4, 8]: 23.1 µM
- IC50 [5, 9]: 36.9 µM

SMILES: C=C(Cc1nc(C2(c3ccc(F)cc3)CC2)no1)C(=O)O [Example 44, 2-((3-(1-(4-fluorophenyl)cyclopropyl)-1,2,4-oxadiazol-5-yl)methyl)acrylic acid]
- hepatocyte CLint at 10 μM [1]: 10 µL/min/1e6 cells
- half-life at 10 μM [1]: 144 min
- hepatocyte CLint at 10 μM [2]: 37 µL/min/1e6 cells
- half-life at 10 μM [2]: 44 min
- EC50 [3, 6]: > 100 µM
- NRF2 activation +GSH Emax ([3]; +GSH): 23%
- EC50 [3, 7]: 28.7 µM
- NRF2 activation −GSH Emax ([3]; −GSH): 65%
- IC50 [4, 8]: 29.9 µM
- IC50 [5, 9]: > 100 µM
- IL-1β lowering, result in words [5]: not effective

SMILES: C=C(Cc1nc(C2(c3ccc(Br)cc3)CC2)no1)C(=O)O [Example 50, 2-((3-(1-(4-bromophenyl)cyclopropyl)-1,2,4-oxadiazol-5-yl)methyl)acrylic acid]
- hepatocyte CLint at 10 μM [1]: 25 µL/min/1e6 cells
- half-life at 10 μM [1]: 53 min
- hepatocyte CLint at 10 μM [2]: 146 µL/min/1e6 cells
- half-life at 10 μM [2]: 9 min
- EC50 [3, 6]: 39.2 µM
- NRF2 activation +GSH Emax ([3]; +GSH): 88%
- EC50 [3, 10]: 35.9 µM
- EC50 [3, 7]: 35.9 µM
- NRF2 activation −GSH Emax ([3]; −GSH): 150%
- −GSH Emax [3, 11]: 150%
- IC50 [4, 8]: 20.3 µM
- IC50 [5, 12]: 4.5 µM
- IC50 [5, 9]: 4.5 µM

SMILES: C=C(Cc1nc(Cc2ccc(OCCCC)cc2)no1)C(=O)O [Example 51, 2-((3-(4-butoxybenzyl)-1,2,4-oxadiazol-5-yl)methyl)acrylic acid]
- hepatocyte CLint at 10 μM [1]: 24 µL/min/1e6 cells
- half-life at 10 μM [1]: 55 min
- hepatocyte CLint at 10 μM [2]: 278 µL/min/1e6 cells
- half-life at 10 μM [2]: 5 min
- EC50 [3, 6]: 6.7 µM
- NRF2 activation +GSH Emax ([3]; +GSH): 181%
- EC50 [3, 7]: 4.6 µM
- NRF2 activation −GSH Emax ([3]; −GSH): 269%
- IC50 [4, 8]: 5.3 µM
- IC50 [5, 9]: 53.4 µM

SMILES: C=C(Cc1nc(C2(c3ccc(Cl)c(F)c3)CC2)no1)C(=O)O [Example 52, 2-((3-(1-(4-chloro-3-fluorophenyl)cyclopropyl)-1,2,4-oxadiazol-5-yl)methyl)acrylic acid]
- hepatocyte CLint at 10 μM [1]: 24 µL/min/1e6 cells
- half-life at 10 μM [1]: 55 min
- hepatocyte CLint at 10 μM [2]: 134 µL/min/1e6 cells
- half-life at 10 μM [2]: 10 min
- EC50 [3, 6]: > 100 µM
- NRF2 activation +GSH Emax ([3]; +GSH): 40%
- EC50 [3, 7]: 15.2 µM
- NRF2 activation −GSH Emax ([3]; −GSH): 78%
- IC50 [4, 8]: 25.5 µM
- IC50 [5, 9]: 19.4 µM

SMILES: C=C(Cc1nc(CCCCCCCCC)no1)C(=O)O [Example 53, 2-((3-nonyl-1,2,4-oxadiazol-5-yl)methyl)acrylic acid]
- hepatocyte CLint at 10 μM [1]: 329 µL/min/1e6 cells
- half-life at 10 μM [1]: 4 min
- hepatocyte CLint at 10 μM [2]: > 460 µL/min/1e6 cells
- half-life at 10 μM [2]: < 3 min
- EC50 [3, 6]: 1.8 µM
- NRF2 activation +GSH Emax ([3]; +GSH): 71%
- EC50 [3, 7]: 1.8 µM
- NRF2 activation −GSH Emax ([3]; −GSH): 178%
- IC50 [4, 8]: 2.6 µM
- IC50 [5, 9]: 1.8 µM

SMILES: C=C(Cc1nc(C(C)CCCCCC(F)(F)F)no1)C(=O)O (centres unmarked) [Example 54, 2-((3-(8,8,8-trifluorooctan-2-yl)-1,2,4-oxadiazol-5-yl)methyl)acrylic acid]
- hepatocyte CLint at 10 μM [1]: 5 µL/min/1e6 cells
- half-life at 10 μM [1]: 268 min
- hepatocyte CLint at 10 μM [2]: 13 µL/min/1e6 cells
- half-life at 10 μM [2]: 102 min
- EC50 [3, 6]: 42.4 µM
- NRF2 activation +GSH Emax ([3]; +GSH): 50%
- EC50 [3, 7]: 44.6 µM
- NRF2 activation −GSH Emax ([3]; −GSH): 115%
- IC50 [4, 8]: 19.1 µM
- IC50 [5, 9]: > 100 µM
- IL-1β lowering, result in words [5]: not effective

SMILES: C=C(Cc1nc(CCCCCCCCCCC)no1)C(=O)O [Example 56, 2-((3-undecyl-1,2,4-oxadiazol-5-yl)methyl)acrylic acid]
- hepatocyte CLint at 10 μM [1]: > 460 µL/min/1e6 cells
- half-life at 10 μM [1]: < 3 min
- hepatocyte CLint at 10 μM [2]: > 460 µL/min/1e6 cells
- half-life at 10 μM [2]: < 3 min
- EC50 [3, 6]: 3.1 µM
- NRF2 activation +GSH Emax ([3]; +GSH): 110%
- EC50 [3, 7]: 2.8 µM
- NRF2 activation −GSH Emax ([3]; −GSH): 175%
- IC50 [4, 8]: 3.3 µM
- IC50 [5, 9]: 3.4 µM

SMILES: C=C(Cc1ncc(CCCCCCCC)o1)C(=O)O [Example 59, 2-((5-octyloxazol-2-yl)methyl)acrylic acid]
- hepatocyte CLint at 10 μM [1]: > 460 µL/min/1e6 cells
- half-life at 10 μM [1]: < 3 min
- hepatocyte CLint at 10 μM [2]: > 460 µL/min/1e6 cells
- half-life at 10 μM [2]: < 3 min
- EC50 [3, 6]: 5.4 µM
- NRF2 activation +GSH Emax ([3]; +GSH): 136%
- EC50 [3, 7]: 3.9 µM
- NRF2 activation −GSH Emax ([3]; −GSH): 213%
- IC50 ([4]; differentiated THP-1 cells): 7.2 µM
- IC50 [5, 9]: 6.9 µM

SMILES: C=C(Cc1nc(CCCCCCCCC(F)(F)F)no1)C(=O)O [Example 60, 2-((3-(9,9,9-trifluorononyl)-1,2,4-oxadiazol-5-yl)methyl)acrylic acid]
- hepatocyte CLint at 10 μM [1]: 137 µL/min/1e6 cells
- half-life at 10 μM [1]: 11 min
- hepatocyte CLint at 10 μM [2]: 257 µL/min/1e6 cells
- half-life at 10 μM [2]: 6 min
- EC50 [3, 6]: 9 µM
- NRF2 activation +GSH Emax ([3]; +GSH): 110%
- EC50 [3, 7]: 8.4 µM
- NRF2 activation −GSH Emax ([3]; −GSH): 195%
- IC50 [4, 8]: 6 µM
- IC50 [5, 9]: 11.2 µM

SMILES: C=C(Cc1nc(-c2ccc(OCCCC)cc2)no1)C(=O)O [Example 61, 2-((3-(4-butoxyphenyl)-1,2,4-oxadiazol-5-yl)methyl)acrylic acid]
- hepatocyte CLint at 10 μM [1]: 52 µL/min/1e6 cells
- half-life at 10 μM [1]: 29 min
- hepatocyte CLint at 10 μM [2]: 301 µL/min/1e6 cells
- half-life at 10 μM [2]: 4 min
- EC50 [3, 6]: 4.9 µM
- NRF2 activation +GSH Emax ([3]; +GSH): 124%
- EC50 [3, 10]: 3.2 µM
- EC50 [3, 7]: 3.2 µM
- NRF2 activation −GSH Emax ([3]; −GSH): 198%
- −GSH Emax [3, 11]: 198%
- IC50 [4, 8]: 3.1 µM
- IC50 [5, 12]: 13.9 µM
- IC50 [5, 9]: 13.9 µM

SMILES: C=C(Cc1nc(C2CC3(C2)CC2(CCC2)C3)no1)C(=O)O [Example 62, 2-((3-(dispiro[3.1.3^6.1^4]decan-2-yl)-1,2,4-oxadiazol-5-yl)methyl)acrylic acid]
- hepatocyte CLint at 10 μM [1]: 57 µL/min/1e6 cells
- half-life at 10 μM [1]: 26 min
- hepatocyte CLint at 10 μM [2]: 119 µL/min/1e6 cells
- half-life at 10 μM [2]: 10 min
- EC50 [3, 6]: 27.4 µM
- NRF2 activation +GSH Emax ([3]; +GSH): 149%
- EC50 [3, 7]: 20 µM
- NRF2 activation −GSH Emax ([3]; −GSH): 229%
- IC50 [4, 8]: 21.5 µM
- IC50 [5, 9]: 17.9 µM

SMILES: C=C(Cc1nc(Cc2ccc(CCC)cc2)no1)C(=O)O [Example 70, 2-((3-(4-propylbenzyl)-1,2,4-oxadiazol-5-yl)methyl)acrylic acid]
- hepatocyte CLint at 10 μM [1]: 13 µL/min/1e6 cells
- half-life at 10 μM [1]: 117 min
- hepatocyte CLint at 10 μM [2]: 58 µL/min/1e6 cells
- half-life at 10 μM [2]: 26 min
- EC50 [3, 6]: 15.6 µM
- NRF2 activation +GSH Emax ([3]; +GSH): 147%
- EC50 [3, 7]: 13.4 µM
- NRF2 activation −GSH Emax ([3]; −GSH): 188%
- IC50 [4, 8]: 9.4 µM
- IC50 [5, 9]: 25.3 µM

SMILES: C=C(Cc1nc(-c2ccc(C3(CCC)CC3)cc2)no1)C(=O)O [Example 72, 2-((3-(4-(1-propylcyclopropyl)phenyl)-1,2,4-oxadiazol-5-yl)methyl)acrylic acid]
- hepatocyte CLint at 10 μM [1]: 69 µL/min/1e6 cells
- half-life at 10 μM [1]: 27 min
- hepatocyte CLint at 10 μM [2]: 28 µL/min/1e6 cells
- half-life at 10 μM [2]: 43 min
- EC50 [3, 6]: 19.5 µM
- NRF2 activation +GSH Emax ([3]; +GSH): 151%
- EC50 [3, 7]: 14.6 µM
- NRF2 activation −GSH Emax ([3]; −GSH): 189%
- IC50 [4, 8]: 4.4 µM
- IC50 [5, 9]: 7 µM
